We go through 1 compound from patent US9682994B2, “Inhibitors of retroviral replication” (The Scripps Research Institute, priority 2011, dated 2017).

The target of this assay is T1, DNA-dependent protein kinase (DNA-PK) catalytic subunit (Homo sapiens, UniProt P78527).
T1 construct: endogenous in cells; host or cells: P42 (HeLa-CD4-LTR-LacZ) cells; HEK293T cells
Description: Bio-CA pull-down / mass spectrometry, DNA-PK. The assay is classed as binding. The method, then: FIG. 14: Bio-CA associated proteins. […] After SDS-PAGE analysis and Coomassie staining, gel slices were trypsin-digested and sent to mass spectrometry analysis.
To identify cellular proteins associated with CA, a biotinylated form of the compound (Bio-CA) was used. […] The Bio-CA was used to cover streptavidin-coated magnetic beads to pull down interacting proteins from either uninfected or chronically infected lysates of cells grown in the presence or absence of CA for 48 hours (FIG. 14D). The identity of the proteins pulled down under the different conditions was determined by HPLC MS/MS analysis. The proteins were identified with a greater than 95% confidence using a proprietary Scripps proteomics software package for protein identification, statistical analysis, and mass/peptide sequence correlation. The HIV proteome was added to the proteomics software search database before analysis. Many proteins were identified in uninfected untreated and in chronically untreated samples (approximately 300), however only 53 were displaced by more than 50% by the presence of CA. Of these 53 proteins, it appears that at least 2 may have a role in HIV-1 replication: DNA-dependent protein kinase catalytic subunit (DNA-PK) and helicase like transcription factor (HLTF).

T1 sequence (P78527 whole entry): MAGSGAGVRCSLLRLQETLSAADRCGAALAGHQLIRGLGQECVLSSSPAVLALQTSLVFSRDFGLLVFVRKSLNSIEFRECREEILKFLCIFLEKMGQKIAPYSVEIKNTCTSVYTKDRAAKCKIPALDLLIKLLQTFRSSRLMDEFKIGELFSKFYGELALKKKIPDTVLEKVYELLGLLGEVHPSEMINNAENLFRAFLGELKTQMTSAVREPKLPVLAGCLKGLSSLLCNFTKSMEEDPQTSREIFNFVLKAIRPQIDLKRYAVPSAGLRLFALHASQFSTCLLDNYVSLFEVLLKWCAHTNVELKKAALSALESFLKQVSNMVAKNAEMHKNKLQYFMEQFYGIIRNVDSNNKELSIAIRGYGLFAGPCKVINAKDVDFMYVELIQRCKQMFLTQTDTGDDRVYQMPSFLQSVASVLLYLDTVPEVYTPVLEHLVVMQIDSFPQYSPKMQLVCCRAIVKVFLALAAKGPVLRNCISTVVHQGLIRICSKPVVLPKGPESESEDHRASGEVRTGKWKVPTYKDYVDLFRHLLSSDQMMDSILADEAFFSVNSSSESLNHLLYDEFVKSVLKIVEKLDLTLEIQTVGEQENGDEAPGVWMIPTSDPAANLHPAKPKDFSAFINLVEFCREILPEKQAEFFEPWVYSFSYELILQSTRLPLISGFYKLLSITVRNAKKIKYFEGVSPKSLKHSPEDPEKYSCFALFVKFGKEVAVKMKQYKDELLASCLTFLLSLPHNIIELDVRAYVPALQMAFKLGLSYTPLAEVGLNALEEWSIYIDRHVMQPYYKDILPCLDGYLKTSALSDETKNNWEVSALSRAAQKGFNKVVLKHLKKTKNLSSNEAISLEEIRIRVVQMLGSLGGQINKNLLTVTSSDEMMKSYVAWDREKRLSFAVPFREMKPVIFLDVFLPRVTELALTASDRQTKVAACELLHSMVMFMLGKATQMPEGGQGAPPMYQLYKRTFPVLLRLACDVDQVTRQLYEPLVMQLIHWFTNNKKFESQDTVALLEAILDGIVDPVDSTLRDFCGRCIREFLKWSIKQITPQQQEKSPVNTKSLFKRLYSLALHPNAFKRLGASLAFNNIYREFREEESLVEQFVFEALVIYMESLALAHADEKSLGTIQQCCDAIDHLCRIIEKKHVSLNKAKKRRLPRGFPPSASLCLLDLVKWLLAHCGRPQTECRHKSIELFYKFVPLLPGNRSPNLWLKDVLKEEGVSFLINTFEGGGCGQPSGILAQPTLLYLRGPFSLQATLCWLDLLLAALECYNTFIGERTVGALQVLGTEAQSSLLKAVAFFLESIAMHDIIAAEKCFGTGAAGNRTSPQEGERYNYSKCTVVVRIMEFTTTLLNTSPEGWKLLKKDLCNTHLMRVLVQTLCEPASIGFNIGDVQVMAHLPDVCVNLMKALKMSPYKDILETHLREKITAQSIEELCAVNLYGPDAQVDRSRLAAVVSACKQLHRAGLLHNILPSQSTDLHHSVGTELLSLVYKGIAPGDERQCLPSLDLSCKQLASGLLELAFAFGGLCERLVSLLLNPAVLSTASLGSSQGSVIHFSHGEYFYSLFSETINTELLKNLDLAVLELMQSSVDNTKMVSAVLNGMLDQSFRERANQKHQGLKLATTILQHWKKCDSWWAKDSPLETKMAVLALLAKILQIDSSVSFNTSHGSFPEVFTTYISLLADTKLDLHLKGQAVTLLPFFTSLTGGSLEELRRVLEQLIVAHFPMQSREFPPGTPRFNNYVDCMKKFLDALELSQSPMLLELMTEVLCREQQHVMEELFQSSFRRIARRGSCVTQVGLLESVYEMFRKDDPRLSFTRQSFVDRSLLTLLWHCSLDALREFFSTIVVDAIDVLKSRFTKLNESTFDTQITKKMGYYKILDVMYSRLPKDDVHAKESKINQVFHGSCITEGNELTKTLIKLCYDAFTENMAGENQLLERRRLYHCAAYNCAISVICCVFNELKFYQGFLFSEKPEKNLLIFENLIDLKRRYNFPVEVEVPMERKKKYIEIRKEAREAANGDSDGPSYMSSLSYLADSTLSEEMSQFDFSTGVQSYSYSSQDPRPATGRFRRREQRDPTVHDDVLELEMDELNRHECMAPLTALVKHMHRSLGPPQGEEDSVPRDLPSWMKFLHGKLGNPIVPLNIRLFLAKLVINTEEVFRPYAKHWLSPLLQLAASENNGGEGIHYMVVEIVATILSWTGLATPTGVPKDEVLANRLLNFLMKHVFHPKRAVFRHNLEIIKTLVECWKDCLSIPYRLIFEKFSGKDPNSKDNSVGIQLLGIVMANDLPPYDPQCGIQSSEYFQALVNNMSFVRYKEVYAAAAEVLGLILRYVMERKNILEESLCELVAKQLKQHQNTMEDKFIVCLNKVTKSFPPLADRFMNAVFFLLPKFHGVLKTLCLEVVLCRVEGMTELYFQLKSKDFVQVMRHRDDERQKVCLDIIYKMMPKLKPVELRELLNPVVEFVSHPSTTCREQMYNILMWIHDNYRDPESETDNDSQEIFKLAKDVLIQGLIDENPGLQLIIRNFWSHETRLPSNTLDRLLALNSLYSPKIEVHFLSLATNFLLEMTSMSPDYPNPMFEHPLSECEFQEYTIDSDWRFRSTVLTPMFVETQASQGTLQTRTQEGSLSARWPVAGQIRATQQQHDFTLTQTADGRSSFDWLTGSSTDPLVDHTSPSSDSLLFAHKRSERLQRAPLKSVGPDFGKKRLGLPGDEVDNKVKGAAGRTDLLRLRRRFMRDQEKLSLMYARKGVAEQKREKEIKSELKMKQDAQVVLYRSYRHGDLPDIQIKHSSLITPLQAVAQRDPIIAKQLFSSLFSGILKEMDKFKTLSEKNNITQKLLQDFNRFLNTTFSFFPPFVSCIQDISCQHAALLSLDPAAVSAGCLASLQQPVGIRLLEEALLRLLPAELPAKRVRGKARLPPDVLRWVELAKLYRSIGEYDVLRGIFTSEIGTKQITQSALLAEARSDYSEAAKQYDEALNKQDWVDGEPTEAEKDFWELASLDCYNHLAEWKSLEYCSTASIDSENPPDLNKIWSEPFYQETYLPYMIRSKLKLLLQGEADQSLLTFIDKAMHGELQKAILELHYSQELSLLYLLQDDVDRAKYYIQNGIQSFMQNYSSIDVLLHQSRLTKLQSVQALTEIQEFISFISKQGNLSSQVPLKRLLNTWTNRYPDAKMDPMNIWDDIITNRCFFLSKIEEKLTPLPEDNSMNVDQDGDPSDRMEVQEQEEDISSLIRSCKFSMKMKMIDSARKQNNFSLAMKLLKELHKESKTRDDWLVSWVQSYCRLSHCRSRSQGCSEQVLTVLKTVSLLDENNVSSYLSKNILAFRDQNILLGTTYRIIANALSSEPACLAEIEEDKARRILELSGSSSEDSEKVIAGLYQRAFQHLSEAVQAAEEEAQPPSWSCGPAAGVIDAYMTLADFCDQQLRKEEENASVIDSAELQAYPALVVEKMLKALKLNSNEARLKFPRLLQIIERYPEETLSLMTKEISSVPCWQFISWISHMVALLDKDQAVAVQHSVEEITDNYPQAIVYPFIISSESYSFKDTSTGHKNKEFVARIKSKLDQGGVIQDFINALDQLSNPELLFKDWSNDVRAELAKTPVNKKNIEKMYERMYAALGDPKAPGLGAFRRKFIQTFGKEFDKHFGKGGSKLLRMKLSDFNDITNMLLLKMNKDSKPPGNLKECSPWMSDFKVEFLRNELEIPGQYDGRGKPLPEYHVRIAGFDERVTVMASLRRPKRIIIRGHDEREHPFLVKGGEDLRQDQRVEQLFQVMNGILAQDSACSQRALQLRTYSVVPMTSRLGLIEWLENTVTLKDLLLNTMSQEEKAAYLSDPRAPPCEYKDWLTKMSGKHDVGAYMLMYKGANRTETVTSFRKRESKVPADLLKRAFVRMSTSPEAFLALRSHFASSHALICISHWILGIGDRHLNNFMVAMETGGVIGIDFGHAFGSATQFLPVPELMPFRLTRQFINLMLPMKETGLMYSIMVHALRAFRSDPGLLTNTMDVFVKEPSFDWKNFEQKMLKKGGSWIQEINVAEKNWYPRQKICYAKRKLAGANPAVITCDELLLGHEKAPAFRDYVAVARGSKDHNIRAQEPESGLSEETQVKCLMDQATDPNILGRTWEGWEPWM

With `CN(C)[C@H]1C[C@@]23CC[C@@]4(O2)C(=CC[C@]2(C)C(c5ccc6ccncc6c5)=CC[C@H]24)C=C3[C@@H](O)[C@@H]1O` [dCA, didehydro-Cortistatin A], the “interaction with DNA-PK” value is on record as “interaction”.
